Results: ChEMBL document CHEMBL1629674, “Surveillance of carbapenem-resistant Pseudomonas aeruginosa isolates from Puerto Rican Medical Center Hospitals: dissemination of KPC and IMP-18 beta-lactamases” (2009)

Key:
Pseudomonas aeruginosa [1] = test: Antimicrobial activity against Pseudomonas aeruginosa PS20A with PFGE phenotype 11D obtained from skin of patient by agar dilution method in presence of beta-lactamase inhibitor tazobactam; format: functional
Pseudomonas aeruginosa [2] = test: Antimicrobial activity against Pseudomonas aeruginosa PS41 with PFGE phenotype 11D obtained from urine of patient by agar dilution method in presence of beta-lactamase inhibitor tazobactam; format: functional
Pseudomonas aeruginosa [3] = test: Antimicrobial activity against Pseudomonas aeruginosa PS34 with PFGE phenotype 4A obtained from blood of ICU patient by agar dilution method in presence of beta-lactamase inhibitor tazobactam; format: functional
Pseudomonas aeruginosa [4] = test: Antimicrobial activity against Pseudomonas aeruginosa PS29 with PFGE phenotype 11D obtained from sputum of patient by agar dilution method in presence of beta-lactamase inhibitor tazobactam; format: functional
Pseudomonas aeruginosa [5] = test: Antimicrobial activity against Pseudomonas aeruginosa PS14 with PFGE phenotype 10C obtained from sputum of ICU patient by agar dilution method in presence of beta-lactamase inhibitor tazobactam; format: functional
Pseudomonas aeruginosa [6] = test: Antimicrobial activity against Pseudomonas aeruginosa PS17B with PFGE phenotype 11D expressing beta-lactamase KPC-2 obtained from blood of ICU patient by agar dilution method in presence of beta-lactamase inhibitor tazobactam; format: functional
Pseudomonas aeruginosa [7] = test: Antimicrobial activity against Pseudomonas aeruginosa PS2 with PFGE phenotype 10B obtained from urine of ICU patient by agar dilution method in presence of beta-lactamase inhibitor tazobactam; format: functional
Pseudomonas aeruginosa [8] = test: Antimicrobial activity against Pseudomonas aeruginosa PS44 with PFGE phenotype 13 expressing beta-lactamase IMP-18 obtained from blood of patient by agar dilution method in presence of beta-lactamase inhibitor tazobactam; format: functional
Pseudomonas aeruginosa [9] = test: Antimicrobial activity against Pseudomonas aeruginosa PS7A with PFGE phenotype 11D obtained from urine of ICU patient by agar dilution method in presence of beta-lactamase inhibitor tazobactam; format: functional
Pseudomonas aeruginosa [10] = test: Antimicrobial activity against Pseudomonas aeruginosa PS35 with PFGE phenotype 11A obtained from urine of patient by agar dilution method in presence of beta-lactamase inhibitor tazobactam; format: functional
Pseudomonas aeruginosa [11] = test: Antimicrobial activity against Pseudomonas aeruginosa PS1 with PFGE phenotype 9C negative for blaIMP, blaVIM and blaKPC obtained from sputum of patient by agar dilution method in presence of beta-lactamase inhibitor tazobactam
Pseudomonas aeruginosa [12] = test: Antimicrobial activity against Pseudomonas aeruginosa PS40 with PFGE phenotype 5 expressing beta-lactamase KPC-2, OXA-2 obtained from urine of patient by agar dilution method in presence of beta-lactamase inhibitor tazobactam; format: functional
Pseudomonas aeruginosa [13] = test: Antimicrobial activity against Pseudomonas aeruginosa PS19A with PFGE phenotype 11C obtained from urine of patient by agar dilution method in presence of beta-lactamase inhibitor tazobactam; format: functional
Pseudomonas aeruginosa [14] = test: Antimicrobial activity against Pseudomonas aeruginosa PS37 with PFGE phasotype 11D obtained from sputum of patient by agar dilution method in presence of beta-lactamase inhibitor Tazobactam; format: functional
Pseudomonas aeruginosa [15] = test: Antimicrobial activity against Pseudomonas aeruginosa PS3 with PFGE phenotype 12 obtained from sputum of ICU patient by agar dilution method in presence of beta-lactamase inhibitor tazobactam; format: functional
Pseudomonas aeruginosa [16] = test: Antimicrobial activity against Pseudomonas aeruginosa PS18A with PFGE phenotype 11D obtained from CSF of ICU patient by agar dilution method in presence of beta-lactamase inhibitor tazobactam; format: functional
Pseudomonas aeruginosa [17] = test: Antimicrobial activity against Pseudomonas aeruginosa PS31 with PFGE phenotype 11B obtained from skin of patient by agar dilution method in presence of beta-lactamase inhibitor tazobactam; format: functional
Pseudomonas aeruginosa [18] = test: Antimicrobial activity against Pseudomonas aeruginosa PS5 with PFGE phenotype 7A expressing beta-lactamase KPC-2 obtained from sputum of ICU patient by agar dilution method in presence of beta-lactamase inhibitor tazobactam; format: functional
Pseudomonas aeruginosa [19] = test: Antimicrobial activity against Pseudomonas aeruginosa PS9 with PFGE phenotype 3B obtained from sputum of patient by agar dilution method in presence of beta-lactamase inhibitor tazobactam; format: functional
Pseudomonas aeruginosa [20] = test: Antimicrobial activity against Pseudomonas aeruginosa PS28 with PFGE phenotype 6 expressing beta-lactamase KPC-5 obtained from skin of patient by agar dilution method in presence of beta-lactamase inhibitor tazobactam; format: functional
Pseudomonas aeruginosa [21] = test: Antimicrobial activity against Pseudomonas aeruginosa PS33 with PFGE phasotype 9A obtained from blood of patient by agar dilution method in presence of beta-lactamase inhibitor Tazobactam; format: functional
Pseudomonas aeruginosa [22] = test: Antimicrobial activity against Pseudomonas aeruginosa PS30 with PFGE phenotype 11D obtained from sputum of patient by agar dilution method in presence of beta-lactamase inhibitor tazobactam; format: functional
Pseudomonas aeruginosa [23] = test: Antimicrobial activity against Pseudomonas aeruginosa PS36 with PFGE phenotype 11B obtained from urine of patient by agar dilution method in presence of beta-lactamase inhibitor tazobactam; format: functional
Pseudomonas aeruginosa [24] = test: Antimicrobial activity against Pseudomonas aeruginosa PS22 with PFGE phenotype 3A obtained from urine of patient by agar dilution method in presence of beta-lactamase inhibitor tazobactam; format: functional
Pseudomonas aeruginosa [25] = test: Antimicrobial activity against Pseudomonas aeruginosa PS43 with PFGE phasotype 2 expressing beta-lactamase KPC-2, OXA-2 obtained from skin of ICU patient by agar dilution method in presence of beta-lactamase inhibitor Tazobactam; format: functional
Pseudomonas aeruginosa [26] = test: Antimicrobial activity against Pseudomonas aeruginosa PS21 with PFGE phenotype 11F obtained from skin of patient by agar dilution method in presence of beta-lactamase inhibitor tazobactam; format: functional
Pseudomonas aeruginosa [27] = test: Antimicrobial activity against Pseudomonas aeruginosa PS15A with PFGE phasotype 10A obtained from blood of patient by agar dilution method in presence of beta-lactamase inhibitor Tazobactam; format: functional
Pseudomonas aeruginosa [28] = test: Antimicrobial activity against Pseudomonas aeruginosa PS13 with PFGE phenotype 11E obtained from sputum of ICU patient by agar dilution method in presence of beta-lactamase inhibitor tazobactam; format: functional
Pseudomonas aeruginosa [29] = test: Antimicrobial activity against OprD overproducing Pseudomonas aeruginosa PAO1 expressing mexA and oprD by agar dilution method in presence of beta-lactamase inhibitor Tazobactam; format: functional
Pseudomonas aeruginosa [30] = test: Antimicrobial activity against Pseudomonas aeruginosa PS6A with PFGE phenotype 11A obtained from sputum of ICU patient by agar dilution method in presence of beta-lactamase inhibitor tazobactam; format: functional
Pseudomonas aeruginosa [31] = test: Antimicrobial activity against Pseudomonas aeruginosa PS39 with PFGE phenotype 8 expressing beta-lactamase IMP-18 obtained from urine of patient by agar dilution method in presence of beta-lactamase inhibitor tazobactam; format: functional
Pseudomonas aeruginosa [32] = test: Antimicrobial activity against Pseudomonas aeruginosa PS12 with PFGE phasotype 7B obtained from sputum of patient by agar dilution method in presence of beta-lactamase inhibitor Tazobactam; format: functional
Pseudomonas aeruginosa [33] = test: Antimicrobial activity against Pseudomonas aeruginosa PS4 with PFGE phasotype 9B expressing beta-lactamase IMP-18 obtained from sputum of patient by agar dilution method in presence of beta-lactamase inhibitor Tazobactam; format: functional
Pseudomonas aeruginosa [34] = test: Antimicrobial activity against Pseudomonas aeruginosa PS10 with PFGE phenotype 1A expressing beta-lactamase KPC-2 obtained from blood of patient by agar dilution method in presence of beta-lactamase inhibitor tazobactam; format: functional
Pseudomonas aeruginosa [35] = test: Antimicrobial activity against Pseudomonas aeruginosa PS25 with PFGE phenotype 1A obtained from sputum of patient by agar dilution method in presence of beta-lactamase inhibitor tazobactam; format: functional
Pseudomonas aeruginosa [36] = test: Antimicrobial activity against Pseudomonas aeruginosa PS23 with PFGE phasotype 4A expressing beta-lactamase KPC-2 obtained from blood of patient by agar dilution method in presence of beta-lactamase inhibitor Tazobactam; format: functional
Pseudomonas aeruginosa [37] = test: Antimicrobial activity against Pseudomonas aeruginosa PS26 with PFGE phenotype 3A expressing beta-lactamase OXA-2 obtained from sputum of ICU patient by agar dilution method in presence of beta-lactamase inhibitor tazobactam; format: functional
Pseudomonas aeruginosa [38] = test: Antimicrobial activity against Pseudomonas aeruginosa PS11A with PFGE phasotype 7A obtained from sputum of ICU patient by agar dilution method in presence of beta-lactamase inhibitor Tazobactam; format: functional

## CCN1CCN(C(=O)N[C@@H](C(=O)N[C@@H]2C(=O)N3[C@@H]2SC(C)(C)[C@@H]3C(=O)O)c2ccccc2)C(=O)C1=O [PIPERACILLIN]
Pseudomonas aeruginosa [1]
  MIC: > 256 µg/mL
Pseudomonas aeruginosa [2]
  MIC: > 256 µg/mL
Pseudomonas aeruginosa [3]
  MIC: > 256 µg/mL
Pseudomonas aeruginosa [4]
  MIC: > 256 µg/mL
Pseudomonas aeruginosa [5]
  MIC: 4 µg/mL
Pseudomonas aeruginosa [6]
  MIC: > 256 µg/mL
Pseudomonas aeruginosa [7]
  MIC: 4 µg/mL
Pseudomonas aeruginosa [8]
  MIC: 32 µg/mL
Pseudomonas aeruginosa [9]
  MIC: > 256 µg/mL
Pseudomonas aeruginosa [10]
  MIC: > 256 µg/mL
Pseudomonas aeruginosa [11]
  MIC: 8 µg/mL
Pseudomonas aeruginosa [12]
  MIC: 128 µg/mL
Pseudomonas aeruginosa [13]
  MIC: > 256 µg/mL
Pseudomonas aeruginosa [14]
  MIC: > 256 µg/mL
Pseudomonas aeruginosa [15]
  MIC: 8 µg/mL
Pseudomonas aeruginosa [16]
  MIC: > 256 µg/mL
Pseudomonas aeruginosa [17]
  MIC: > 256 µg/mL
Pseudomonas aeruginosa [18]
  MIC: > 256 µg/mL
Pseudomonas aeruginosa [19]
  MIC: 64 µg/mL
Pseudomonas aeruginosa [20]
  MIC: 128 µg/mL
Pseudomonas aeruginosa [21]
  MIC: 32 µg/mL
Pseudomonas aeruginosa [22]
  MIC: > 256 µg/mL
Pseudomonas aeruginosa [23]
  MIC: > 256 µg/mL
Pseudomonas aeruginosa [24]
  MIC: 256 µg/mL
Pseudomonas aeruginosa [25]
  MIC: 256 µg/mL
Pseudomonas aeruginosa [26]
  MIC: > 256 µg/mL
Pseudomonas aeruginosa [27]
  MIC: 8 µg/mL
Pseudomonas aeruginosa [28]
  MIC: > 256 µg/mL
Pseudomonas aeruginosa [29]
  MIC: 4 µg/mL
Pseudomonas aeruginosa [30]
  MIC: > 256 µg/mL
Pseudomonas aeruginosa [31]
  MIC: 128 µg/mL
Pseudomonas aeruginosa [32]
  MIC: > 256 µg/mL
Pseudomonas aeruginosa [33]
  MIC: 64 µg/mL
Pseudomonas aeruginosa [34]
  MIC: > 256 µg/mL
Pseudomonas aeruginosa [35]
  MIC: > 256 µg/mL
Pseudomonas aeruginosa [36]
  MIC: > 256 µg/mL
Pseudomonas aeruginosa [37]
  MIC: 128 µg/mL
Pseudomonas aeruginosa [38]
  MIC: > 256 µg/mL
